Measured values reported in PubChem BioAssay AID256 (DTP/NCI, 2004).
Values joined by “and” are separate entries in the source; they are usually repeats but may differ in a detail not shown here. Equal values may be shown once. Toxic doses and inconclusive results are not listed. How the source made its calls: active means survival T/C of 150% or more; inactive means T/C below 125% in these data.

Test system: CD2F1 mice, L1210 leukemia ip, survival T/C
Assay: NCI In Vivo Anticancer Drug Screen. Data for tumor model L1210 Leukemia (intraperitoneal) in CD2F1 (CDF1) mice
Details: higher = longer survival
In short: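 Implant tumor; dose compound or vehicle; measure endpoint in both groups; report treated divided by control.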

[1] = endpoint: mean survival time, dose: 25.0 mg/kg/injection, schedule: Q01DX009 (ip), vehicle: Klucel (hydroxypropylcellulose) (HPC)
[2] = endpoint: mean survival time, dose: 100.0 mg/kg/injection, schedule: Q01DX009 (ip), vehicle: Klucel (hydroxypropylcellulose) (HPC)
[3] = endpoint: mean survival time, dose: 200.0 mg/kg/injection, schedule: Q01DX009 (ip), vehicle: Klucel (hydroxypropylcellulose) (HPC)
[4] = endpoint: mean survival time, dose: 400.0 mg/kg/injection, schedule: Q01DX009 (ip), vehicle: Klucel (hydroxypropylcellulose) (HPC)
[5] = endpoint: mean survival time, dose: 100.0 mg/kg/injection, schedule: Q04DX003 (ip), vehicle: saline with Tween-80
[6] = endpoint: mean survival time, dose: 200.0 mg/kg/injection, schedule: Q04DX003 (ip), vehicle: saline with Tween-80
[7] = endpoint: mean survival time, dose: 400.0 mg/kg/injection, schedule: Q04DX003 (ip), vehicle: saline with Tween-80
[8] = endpoint: mean survival time, dose: 100.0 mg/kg/injection, schedule: Q01DX001 (ip), vehicle: saline with Tween-80
[9] = endpoint: mean survival time, dose: 100.0 mg/kg/injection, schedule: Q01DX009 (ip), vehicle: saline with Tween-80
[10] = endpoint: mean survival time, dose: 200.0 mg/kg/injection, schedule: Q01DX001 (ip), vehicle: saline with Tween-80
[11] = endpoint: mean survival time, dose: 200.0 mg/kg/injection, schedule: Q01DX009 (ip), vehicle: saline with Tween-80
[12] = endpoint: mean survival time, dose: 400.0 mg/kg/injection, schedule: Q01DX001 (ip), vehicle: saline with Tween-80
[13] = endpoint: mean survival time, dose: 400.0 mg/kg/injection, schedule: Q01DX009 (ip), vehicle: saline with Tween-80
[14] = endpoint: mean survival time, dose: 100.0 mg/kg/injection, schedule: Q01DX009 (ip), vehicle: saline

Measured: T/C

CCCCCCCCCCCCCCCC(=O)N(C/C=C/CN(C(=O)CCCCCCCCCCCCCCC)C(C)CCCN(CC)CC)C(C)CCCN(CC)CC (centres undefined)
inactive: endpoint: mean survival time, dose: 12.5 mg/kg/injection, schedule: Q01DX009 (ip), vehicle: other 97 % of control | endpoint: mean survival time, dose: 25.0 mg/kg/injection, schedule: Q01DX009 (ip), vehicle: other 94 % of control

CC1(C)CC(C)(OC(=O)c2ccccc2)N=N1 (centres undefined)
inactive: [1] 97 % of control | endpoint: mean survival time, dose: 50.0 mg/kg/injection, schedule: Q01DX009 (ip), vehicle: Klucel (hydroxypropylcellulose) (HPC) 94 % of control | [2] 101 % of control | [3] 100 % of control | [4] 101 % of control

CC1(C)SC(C(NC(=O)COc2ccccc2)C(=O)O)NC1C(=O)O (centres undefined)
inactive: [5] 97 % of control | [6] 97 % of control

O=C(O)CC(=O)O.[NH-]CC(O)C[N-]CC(O)CN.[Pt+2] (centres undefined)
inactive: endpoint: median survival time, dose: 10.0 mg/kg/injection, schedule: Q04DX003 (ip), vehicle: distilled water + Tween-80 101 % of control | endpoint: median survival time, dose: 20.0 mg/kg/injection, schedule: Q04DX003 (ip), vehicle: distilled water + Tween-80 101 % of control | endpoint: median survival time, dose: 40.0 mg/kg/injection, schedule: Q04DX003 (ip), vehicle: distilled water + Tween-80 104 % of control | endpoint: median survival time, dose: 66.5 mg/kg/injection, schedule: Q04DX003 (ip), vehicle: distilled water + Tween-80 107 % of control | endpoint: median survival time, dose: 80.0 mg/kg/injection, schedule: Q04DX003 (ip), vehicle: distilled water + Tween-80 106 % of control and 108 % of control | endpoint: median survival time, dose: 133.0 mg/kg/injection, schedule: Q04DX003 (ip), vehicle: distilled water + Tween-80 108 % of control | endpoint: median survival time, dose: 160.0 mg/kg/injection, schedule: Q04DX003 (ip), vehicle: distilled water + Tween-80 119 % of control | endpoint: median survival time, dose: 266.0 mg/kg/injection, schedule: Q04DX003 (ip), vehicle: distilled water + Tween-80 117 % of control | endpoint: median survival time, dose: 320.0 mg/kg/injection, schedule: Q04DX003 (ip), vehicle: distilled water + Tween-80 117 % of control

CC1(C)N=C(N)N=C(N)N1c1ccc(OCCOc2ccc(S(=O)(=O)F)cc2)c(Cl)c1
inactive: endpoint: mean survival time, dose: 25.0 mg/kg/injection, schedule: Q04DX003 (ip), vehicle: saline with Tween-80 114 % of control | [5] 120 % of control

O=C(N/N=C/c1ccccc1)c1cc([N+](=O)[O-])cc([N+](=O)[O-])c1
inactive: [2] 94 % of control | [3] 100 % of control | [4] 98 % of control

CCOC(=O)c1cc(C=O)nc2c(Cl)cc(Cl)cc12
inactive: [5] 96 % of control | [7] 98 % of control

Clc1ccc(Sc2ccc(Cl)cc2)cc1
inactive: [8] 94 % of control | [9] 98 % of control | [5] 91 % of control | [10] 108 % of control | [11] 102 % of control | [6] 91 % of control | [12] 91 % of control | [13] 98 % of control

O=c1scc(-c2ccc(C(F)(F)F)cc2)s1
inactive: endpoint: mean survival time, dose: 12.5 mg/kg/injection, schedule: Q01DX009 (ip), vehicle: Klucel (hydroxypropylcellulose) (HPC) 100 % of control | [1] 91 % of control

O=C(O)c1cccc(-c2c3ccc(=O)cc-3oc3cc(O)ccc23)c1
inactive: [5] 96 % of control | [6] 100 % of control | [7] 96 % of control

Cc1cc2nc(N)n(C3OC(CO)C(O)C3O)c2cc1C (centres undefined)
inactive: endpoint: mean survival time, dose: 75.0 mg/kg/injection, schedule: Q01DX001 (ip), vehicle: saline 108 % of control | endpoint: mean survival time, dose: 150.0 mg/kg/injection, schedule: Q01DX001 (ip), vehicle: saline 105 % of control | endpoint: mean survival time, dose: 300.0 mg/kg/injection, schedule: Q01DX001 (ip), vehicle: saline 103 % of control

CC(=O)OCC1OC(OC(C)=O)C(NC(=S)N(C)N=O)C(OC(C)=O)C1OC(C)=O (centres undefined)
inactive: endpoint: mean survival time, dose: 12.5 mg/kg/injection, schedule: Q04DX002 (ip), vehicle: distilled water + Tween-80 106 % of control | endpoint: mean survival time, dose: 25.0 mg/kg/injection, schedule: Q04DX002 (ip), vehicle: distilled water + Tween-80 103 % of control | endpoint: mean survival time, dose: 50.0 mg/kg/injection, schedule: Q04DX002 (ip), vehicle: distilled water + Tween-80 113 % of control | endpoint: mean survival time, dose: 100.0 mg/kg/injection, schedule: Q04DX002 (ip), vehicle: distilled water + Tween-80 118 % of control and 120 % of control

CC(N)CCc1ccccc1 (centres undefined)
inactive: endpoint: mean survival time, dose: 12.5 mg/kg/injection, schedule: Q01DX009 (ip), vehicle: saline with Tween-80 102 % of control | endpoint: mean survival time, dose: 25.0 mg/kg/injection, schedule: Q01DX009 (ip), vehicle: saline with Tween-80 100 % of control | endpoint: mean survival time, dose: 50.0 mg/kg/injection, schedule: Q01DX009 (ip), vehicle: saline with Tween-80 102 % of control

O=C(O)C1CC[N-]CC1.O=C(O)C1CC[N-]CC1.O=C(O)C1CC[N-]CC1.O=C(O)C1CC[N-]CC1.[Cl][Rh][Cl]
inactive: endpoint: mean survival time, dose: 66.0 mg/kg/injection, schedule: Q01DX009 (ip), vehicle: saline 112 % of control | [14] 110 % of control

Cc1ccc(S(=O)(=O)N/N=C\c2cccnc2)cc1
inactive: endpoint: mean survival time, dose: 12.5 mg/kg/injection, schedule: Q04DX003 (ip), vehicle: other 101 % of control | endpoint: mean survival time, dose: 25.0 mg/kg/injection, schedule: Q04DX003 (ip), vehicle: other 101 % of control | endpoint: mean survival time, dose: 50.0 mg/kg/injection, schedule: Q04DX003 (ip), vehicle: other 97 % of control | endpoint: mean survival time, dose: 100.0 mg/kg/injection, schedule: Q04DX003 (ip), vehicle: other 101 % of control | endpoint: mean survival time, dose: 200.0 mg/kg/injection, schedule: Q04DX003 (ip), vehicle: other 97 % of control | endpoint: mean survival time, dose: 400.0 mg/kg/injection, schedule: Q04DX003 (ip), vehicle: other 98 % of control

Cc1nc(N)nc2c1CCC(O)S2 (centres undefined)
inactive: endpoint: mean survival time, dose: 25.0 mg/kg/injection, schedule: Q01DX001 (ip), vehicle: Klucel (hydroxypropylcellulose) (HPC) 96 % of control | endpoint: mean survival time, dose: 50.0 mg/kg/injection, schedule: Q01DX001 (ip), vehicle: Klucel (hydroxypropylcellulose) (HPC) 96 % of control | endpoint: mean survival time, dose: 100.0 mg/kg/injection, schedule: Q01DX001 (ip), vehicle: Klucel (hydroxypropylcellulose) (HPC) 96 % of control

C(=N/N=C(\C(=N\N=C\c1ccc2c(c1)CCC2)c1ccccc1)c1ccccc1)\c1ccc2c(c1)CCC2
inactive: [5] 96 % of control | [6] 89 % of control | [7] 87 % of control

N#C/C(=C\C=C\c1cccc([N+](=O)[O-])c1)c1ccccc1
inactive: [8] 96 % of control | [9] 100 % of control and 103 % of control | endpoint: mean survival time, dose: 100.0 mg/kg/injection, schedule: Q04DX002 (ip), vehicle: saline with Tween-80 102 % of control | [5] 97 % of control | [10] 105 % of control | [11] 96 % of control and 107 % of control | endpoint: mean survival time, dose: 200.0 mg/kg/injection, schedule: Q04DX002 (ip), vehicle: saline with Tween-80 98 % of control | [6] 105 % of control | [12] 97 % of control | [13] 94 % of control and 100 % of control | endpoint: mean survival time, dose: 400.0 mg/kg/injection, schedule: Q04DX002 (ip), vehicle: saline with Tween-80 100 % of control | [7] 94 % of control

CCOC(=O)C(C(=O)OCC)[N+](=O)[O-]
inactive: endpoint: mean survival time, dose: 50.0 mg/kg/injection, schedule: Q04DX003 (ip), vehicle: saline 102 % of control | endpoint: mean survival time, dose: 100.0 mg/kg/injection, schedule: Q01DX001 (ip), vehicle: saline 97 % of control | endpoint: mean survival time, dose: 100.0 mg/kg/injection, schedule: Q04DX003 (ip), vehicle: saline 100 % of control | endpoint: mean survival time, dose: 200.0 mg/kg/injection, schedule: Q01DX001 (ip), vehicle: saline 95 % of control | endpoint: mean survival time, dose: 200.0 mg/kg/injection, schedule: Q04DX003 (ip), vehicle: saline 105 % of control

CC1OC(=O)c2ccccc2S1=O (centres undefined)
inactive: endpoint: mean survival time, dose: 100.0 mg/kg/injection, schedule: Q01DX009 (ip), vehicle: saline sonified 98 % of control | [5] 98 % of control | endpoint: mean survival time, dose: 200.0 mg/kg/injection, schedule: Q01DX009 (ip), vehicle: saline sonified 97 % of control | [6] 100 % of control | endpoint: mean survival time, dose: 400.0 mg/kg/injection, schedule: Q01DX009 (ip), vehicle: saline sonified 97 % of control | [7] 104 % of control

O=C1CCCN1
inactive: endpoint: mean survival time, dose: 50.0 mg/kg/injection, schedule: Q01DX009 (ip), vehicle: saline 91 % of control | [14] 98 % of control | endpoint: mean survival time, dose: 200.0 mg/kg/injection, schedule: Q01DX009 (ip), vehicle: saline 89 % of control

CN(C)S(=O)(=O)Oc1ccc(N)cc1
inactive: [5] 103 % of control | [6] 101 % of control | [7] 104 % of control

Cc1nc2ccc(Cl)c(Cl)c2s1
inactive: [5] 106 % of control | [6] 106 % of control | [7] 104 % of control
